Laboratory results as given in patent US20160279236A1, “USE OF RAPAMYCIN AS VACCINE ADJUVANT AND PREPARATION METHOD THEREFOR” (INSTITUT PASTEUR OF SHANGHAI, CHINESE ACADEMY OF SCIENCES, priority 2013, published 2016).

Assays:
[1] = system: melanoma murine cell line B16 OVA; assay: Tumor growth of B16 OVA melanoma in mice immunized with ovalbumin plus adjuvants; assay type: in vivo; conditions: ovalbumin 10 μg/mouse i.p. prime and boost; polyI:C 50 μg, rapamycin 100 μg, MPL 10 μg per mouse; B16 OVA 1×10^6 cells s.c. 4 weeks after secondary immunization
Experimental: By intraperitoneal injecting, 6-8 weeks aged mice were immunized using ovalbumin (10 μg/mouse) as antigen and PBS (200 μl, negative control), polyI:C (Invivogen) (50 μg/mouse), rapamycin (100 μg/mouse), MPL (10 μg/mouse), MPL (10 μg/mouse)+rapamycin (100 μg/mouse), polyI:C (50 μg/mouse)+rapamycin (100 μg/mouse) used as adjuvant to conduct primary immunization. After two weeks, the mice were boosted by the same program. 4 weeks after the secondary immunization, melanoma murine cell line B16 OVA expressing OVA was subcutaneous implanted into mice (1×10^6 cells/mouse), and the tumor growth was measured.

[2] = system: OVA-specific T cell responses and antibody responses; assay: Ovalbumin immunization of mice with adjuvants: OVA-specific T cell and antibody responses; assay type: in vivo
Experimental: 6-8 weeks aged mice were primarily immunized by the inventors using intraperitoneal injection method, wherein Ovalbumin (10 μg/mouse) was used as antigen and PBS (negative control), MPL (10 μg/mouse, positive control), rapamycin (100 μg/mouse), rapamycin (100 μg/mouse)+MPL (10 μg/mouse) as adjuvant respectively, and were immunized again with ovalbumin (10 μg/mouse, without adjuvant) at 3 weeks. […] After 48 hours, enzyme linked immunosorbent assay (ELISA) was used to determine the content of IFNγ in the supernatant.

[3] = blood 1 week after secondary immunization, single adjuvants vs negative control, combination vs MPL alone

Substance	tumor growth [1]	OVA-specific IgG1 antibody titers [2, 3]	OVA-specific IgG2b antibody titers [2, 3]	OVA-specific IgG2c antibody titers [2, 3]	OVA-specific CD8+ T cell responses ([2]; mice i.p., ovalbumin 10 μg, MPL 10 μg, rapamycin 100 μg per mouse, IFNγ ELISA of splenic cells stimulated with OVA-1, 48 hours)	OVA-specific CD4+ (Th1) T cell responses ([2]; mice i.p., ovalbumin 10 μg, MPL 10 μg, rapamycin 100 μg per mouse, IFNγ ELISA of splenic cells stimulated with OVA-II, 48 hours)
polyI:C	grew slowly and was of relatively small volume					
monophosphoryl lipid A [MPL]		significantly increase	significantly increase	significantly increase	significantly increase	significantly increase
